Reference: patent US8759098B2, “Method for cloning pluripotent stem cells” (Boston Biomedical Research Institute, Inc., priority 2009, dated 2014)

Key:
Assay type in all cases: cell-based, mouse
[1] = tested on: reprogramming genes (Oct4, Sox2, Klf4, Myc, Lin28) in Panstra-25 - Xn responsive; test: Micro-array expression of reprogramming gene mRNAs, Panstra-25
Excerpt: (§1) Table 2. Micro-array expression levels for described iPSC reprogramming gene mRNAs in SACK-derived mouse pancreatic stem cell strains. […] Panstra-11 is a non-responsive strain.
(§2) All the described induced pluripotent stem cell (iPSC) reprogramming genes are detected in two cell strains derived with the suppression of asymmetric cell kinetics (SACK)-agent xanthine (Xn). The SACK strains were derived from pancreatic islets of adult xanthine phosphoribosyl transferase (XPRT)-transgenic mice. The derivation of such strains requires both the XPRT-transgenic genotype and Xn.

[2] = tested on: reprogramming genes (Oct4, Sox2, Klf4, Myc, Lin28) in Panstra-11-Xn Non-responsive; test: Micro-array expression of reprogramming gene mRNAs, Panstra-11
Excerpt: as §1, §2

[3] = tested on: SACK-responsive, Pdx1-positive Panstra-25 pancreatic stem cells; test: Gene-free iPSC reprogramming on STO feeders, colony phenotypes, Panstra-25; conditions: for Estimated gene-free iPSC colony formation efficiency, ES, AP+ (iPSC state) / Estimated gene-free iPSC colony formation efficiency, ES, AP− / Estimated gene-free iPSC colony formation efficiency, Fl, AP+ / Estimated gene-free iPSC colony formation efficiency, Fl, AP− / Phenotype ES, AP+ (iPSC state) of individual cell clones following expansion, clones/total / Phenotype ES, AP+ (iPSC state) of individual cell clones following expansion, percent / Phenotype ES, AP− of individual cell clones following expansion, clones/total / Phenotype ES, AP− of individual cell clones following expansion, percent / Phenotype Fl, AP+ of individual cell clones following expansion, clones/total / Phenotype Fl, AP+ of individual cell clones following expansion, percent / Phenotype Fl, AP− of individual cell clones following expansion, clones/total / Phenotype Fl, AP− of individual cell clones following expansion, percent: Panstra-25, 1 mM Xn
Experimental: Each tested SACK-derived cell strain was cultured on STO cell feeder monolayers in control medium with 10% DFBS, dialyzed fetal bovine serum (DFBS) or either of two commercial media for culture of murine embryonic stem cells (ESCs) and for the culture of reprogrammed cells such as iPSCs. Each medium condition was evaluated with or without supplementation with 1 mM xanthine (Xn). P/S denotes routine use of the antibiotics penicillin and streptomycin.
The method is an original pharmacological procedure for producing pluripotent stem cells. Cell strains derived in xanthine (Xn)-supplemented medium, by the method of suppression of asymmetric cell kinetics (SACK), were cultured in commercial media specified for the culture and/or production of pluripotent stem cells such as embryonic stem cells and iPSCs. Approximately 150,000 cells were plated on confluent STO cell feeders (i.e., mouse embryonic fibroblasts pre-treated with mitomycin C) in 10-cm culture dishes. In 2 weeks, iPSC-like cell colonies were detected.
To establish clonal strains, single colonies were picked, cultured in individual wells, and expanded for further study and cryo-preservation. A high fraction of the derived cell clones have morphological and biochemical properties indicative of iPSC cells.
Tissue-specific stem cells (e.g., Panstra-25 and Panstra-12 mouse pancreatic stem cell strains in the instant example) were cultured on mitomycin C-treated STO cell monolayers in commercial embryonic stem cell medium supplemented with the purine salvage base xanthine at 1 mM concentration (FIG. 4). Within 2-3 weeks of culture under otherwise standard conditions, cell colonies with embryonic stem cell-like morphology developed (FIG. 7B). These colonies were removed by mild trypsin treatment, transferred to individual cell culture wells prepared with STO cell feeders, and expanded in the respective embryonic stem cell culture medium supplemented with 1 mM xanthine (FIG. 5). The expanded cell clones expressed alkaline phosphatase (FIG. 8), a biochemical biomarker for the pluripotent phenotype of embryonic stem cells and iPSC cells. […] Xn supplementation increased the average production efficiency by as much as 3-fold (Table 6).

O=c1[nH]c(=O)c2[nH]cnc2[nH]1 [Xn, xanthine]
Klf4 expression (gene micro-array data) ([1]; Panstra-25, Xn): 31.8 | Lin28 expression (gene micro-array data) ([1]; Panstra-25, Xn): 1.0 | Myc expression (gene micro-array data) ([1]; Panstra-25, Xn): 35.5 | Oct4 expression (gene micro-array data) ([1]; Panstra-25, Xn): 2.3 | Sox2 expression (gene micro-array data) ([1]; Panstra-25, Xn): 0.2 | Klf4 and Myc mRNA expression in response to culture in Xn ([1]; SACK-derived strains, Table 2): increased mRNA expression | Klf4 expression (gene micro-array data) [2]: 21.6 | Lin28 expression (gene micro-array data) [2]: 0.9 | Myc expression (gene micro-array data) [2]: 19.6 | Oct4 expression (gene micro-array data) [2]: 2.6 | Sox2 expression (gene micro-array data) [2]: 0.1 | iPSC (gene-free iPSC reprogramming) ([3]; Panstra 25, SACK agent Xn): Yes | Estimated gene-free iPSC colony formation efficiency, ES, AP+ (iPSC state) ([3]; DFBS): 0.000% | Estimated gene-free iPSC colony formation efficiency, ES, AP− ([3]; DFBS): 0.000% | Estimated gene-free iPSC colony formation efficiency, Fl, AP+ ([3]; DFBS): 0.000% | Estimated gene-free iPSC colony formation efficiency, Fl, AP− ([3]; DFBS): 0.059% | Phenotype ES, AP+ (iPSC state) of individual cell clones following expansion, clones/total ([3]; DFBS): 0/22 | Phenotype ES, AP+ (iPSC state) of individual cell clones following expansion, percent ([3]; DFBS): 0% | Phenotype ES, AP− of individual cell clones following expansion, clones/total ([3]; DFBS): 0/22 | Phenotype ES, AP− of individual cell clones following expansion, percent ([3]; DFBS): 0% | Phenotype Fl, AP+ of individual cell clones following expansion, clones/total ([3]; DFBS): 0/22 | Phenotype Fl, AP+ of individual cell clones following expansion, percent ([3]; DFBS): 0% | Phenotype Fl, AP− of individual cell clones following expansion, clones/total ([3]; DFBS): 22/22 | Phenotype Fl, AP− of individual cell clones following expansion, percent ([3]; DFBS): 100% | Estimated gene-free iPSC colony formation efficiency, ES, AP+ (iPSC state) ([3]; KOSR): 0.016% | Estimated gene-free iPSC colony formation efficiency, ES, AP− ([3]; KOSR): 0.037% | Estimated gene-free iPSC colony formation efficiency, Fl, AP+ ([3]; KOSR): 0.000% | Estimated gene-free iPSC colony formation efficiency, Fl, AP− ([3]; KOSR): 0.000% | Phenotype ES, AP+ (iPSC state) of individual cell clones following expansion, clones/total ([3]; KOSR): 6/20 | Phenotype ES, AP+ (iPSC state) of individual cell clones following expansion, percent ([3]; KOSR): 30% | Phenotype ES, AP− of individual cell clones following expansion, clones/total ([3]; KOSR): 14/20 | Phenotype ES, AP− of individual cell clones following expansion, percent ([3]; KOSR): 70% | Phenotype Fl, AP+ of individual cell clones following expansion, clones/total ([3]; KOSR): 0/20 | Phenotype Fl, AP+ of individual cell clones following expansion, percent ([3]; KOSR): 0% | Phenotype Fl, AP− of individual cell clones following expansion, clones/total ([3]; KOSR): 0/20 | Phenotype Fl, AP− of individual cell clones following expansion, percent ([3]; KOSR): 0% | Estimated gene-free iPSC colony formation efficiency, ES, AP+ (iPSC state) ([3]; hiFBS): 0.008% | Estimated gene-free iPSC colony formation efficiency, ES, AP− ([3]; hiFBS): 0.027% | Estimated gene-free iPSC colony formation efficiency, Fl, AP+ ([3]; hiFBS): 0.003% | Estimated gene-free iPSC colony formation efficiency, Fl, AP− ([3]; hiFBS): 0.013% | Phenotype ES, AP+ (iPSC state) of individual cell clones following expansion, clones/total ([3]; hiFBS): 3/19 | Phenotype ES, AP+ (iPSC state) of individual cell clones following expansion, percent ([3]; hiFBS): 16% | Phenotype ES, AP− of individual cell clones following expansion, clones/total ([3]; hiFBS): 10/19 | Phenotype ES, AP− of individual cell clones following expansion, percent ([3]; hiFBS): 53% | Phenotype Fl, AP+ of individual cell clones following expansion, clones/total ([3]; hiFBS): 1/19 | Phenotype Fl, AP+ of individual cell clones following expansion, percent ([3]; hiFBS): 5% | Phenotype Fl, AP− of individual cell clones following expansion, clones/total ([3]; hiFBS): 5/19
